Patent US20260364215A1, “Radiopharmaceutical Compositions Targeting Ephrin Type-A Receptor 2 and Uses Thereof” (PeptiDream Inc., priority 2022, published 2026)
Numbered stars: 1 amine (or outer) side, 2 acyl side, 3 side chain; on linkers, the order of the positions; unused ones are H or OH. Bridge positions count the residues as written; N and C are the ends. Square brackets hold non-standard residues; d marks the D form. Side chains are listed from the residue outwards. Peptide text beside a SMILES is read from it. * marks the point of attachment. DOTA(Lu) = O=C1CN2CCN3CCN(CC(=O)*)CCN(CC2)CC(=O)[O][Lu]([O]1)[O]C(=O)C3; NH(1-deoxy-D-glucityl) = OC[C@@H](O)[C@@H](O)[C@H](O)[C@@H](O)CN*; DOTA = O=C(O)CN1CCN(CC(=O)O)CCN(CC(=O)*)CCN(CC(=O)O)CC1; Trp(1-Me,7-Cl) = Cn1cc(C[C@H](N)C(=O)O)c2cccc(Cl)c21; dPhe(3-CONH2) = NC(=O)c1cccc(C[C@@H](N)C(=O)O)c1; Piperazinyl(4-CH2COOH) = O=C(O)CN1CCN(*)CC1; Trp(1-Me) = Cn1cc(C[C@H](N)C(=O)O)c2ccccc21; PEG8 = NCCOCCOCCOCCOCCOCCOCCOCCOCCC(=O)O; NMemTyr = CN[C@@H](Cc1cccc(O)c1)C(=O)O; NMe3Pal = CN[C@@H](Cc1cccnc1)C(=O)O; Gly(cBu) = N[C@H](C(=O)O)C1CCC1; NMeE = CN[C@@H](CCC(=O)O)C(=O)O; Aad = N[C@@H](CCCC(=O)O)C(=O)O; NMeN = CN[C@@H](CC(N)=O)C(=O)O; PEG2 = NCCOCCOCCC(=O)O; CO = O=C([*:1])[*:2]; βAla = NCCC(=O)O

Target: T1, Recombinant Human EphA2 Fc Protein (Homo sapiens, UniProt P29317)
T1 construct: purchased Elabscience
Assay: Interaction analysis (kinetics, KD) of peptides and conjugates against EphA2 by SPR, Biacore T200, single-cycle kinetics (Examples B15 and B22)
Assay type: binding
Conditions: not given
Description: Example B15. Interaction Analysis by SPR was Performed Using Biacore (Cytiva)
SPR assay was performed using Biacore T200 (Cytiva).
The HBS-P+ buffer (10 mM HEPES (pH7.4), 150 mM NaCl, 0.05% (v/v) Surfactant P20) containing 1% DMSO was used as running buffer. Recombinant Human EphA2 Fc Protein (Fc tag, Elabscience) was captured by Human Antibody Capture kit (Cytiva). Peptide samples in DMSO were diluted with running buffer, and prepared five serial dilutions. Using these serial dilutions, kinetics of peptides against EphA2 was measured at a flow rate of […] at 25 °C. The method adopted for sample measurement was a single-cycle kinetics method. The analysis was conducted using the evaluation software 3.0 provided with Biacore T200. Kinetics fitting was done on the difference data obtained by subtracting the baseline data from sample measurement data. KD values were calculated based on the association rate constant (ka) and dissociation rate constant (kd).
Example B22: Interaction Analysis of Conjugates by SPR was Performed Using Biacore (Cytiva)
SPR assay was performed using Biacore T200 (Cytiva) according to Example B15.

T1 sequence (P29317 24-534 limits assumed): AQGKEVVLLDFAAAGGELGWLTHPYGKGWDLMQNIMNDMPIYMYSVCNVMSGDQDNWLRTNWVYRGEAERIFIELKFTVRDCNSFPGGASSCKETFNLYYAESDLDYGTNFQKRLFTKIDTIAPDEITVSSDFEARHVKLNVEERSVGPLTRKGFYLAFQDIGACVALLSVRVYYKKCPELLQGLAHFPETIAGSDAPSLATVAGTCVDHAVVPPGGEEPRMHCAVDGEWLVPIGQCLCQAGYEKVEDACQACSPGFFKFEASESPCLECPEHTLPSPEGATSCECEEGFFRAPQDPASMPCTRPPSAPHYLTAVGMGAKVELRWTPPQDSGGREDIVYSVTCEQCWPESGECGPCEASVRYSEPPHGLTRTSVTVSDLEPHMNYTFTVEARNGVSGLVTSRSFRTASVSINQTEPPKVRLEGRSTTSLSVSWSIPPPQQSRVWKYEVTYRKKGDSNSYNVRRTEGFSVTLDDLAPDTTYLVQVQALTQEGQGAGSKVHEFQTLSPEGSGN

SMILES	Kd [nM]
C[C@@H](O)[C@@H]1NC(=O)[C@H](Cc2cn(C)c3ccccc23)NC(=O)[C@H](CCC(=O)NC[C@H](O)[C@@H](O)[C@H](O)[C@H](O)CO)NC(=O)[C@H](Cc2cn(C)c3c(Cl)cccc23)NC(=O)[C@H](CC(N)=O)N(C)C(=O)[C@H](CCCC(N)=O)NC(=O)[C@H](C2CCC2)NC(=O)[C@H](CC(N)=O)NC(=O)[C@H](Cc2cccnc2)N(C)C(=O)[C@@H](Cc2cccc(C(N)=O)c2)NC(=O)CSC[C@@H](C(=O)N[C@H](CCCCNC(=O)CN2CCN3CCN4CCN(CC2)CC(=O)[O][Lu]([O]C(=O)C3)[O]C(=O)C4)C(N)=O)NC(=O)[C@H](CCCC(N)=O)NC1=O [PDC_EphA2-00022593-C302] ({CH2CO}-[dPhe(3-CONH2)][NMe3Pal]N[Gly(cBu)][Aad](NH2)[NMeN][Trp(1-Me,7-Cl)]E(NH(1-deoxy-D-glucityl))[Trp(1-Me)]T[Aad](NH2)C[dK](DOTA(Lu))-NH2; thioether N-12)	< 1
C[C@@H](O)[C@@H]1NC(=O)[C@H](Cc2cn(C)c3ccccc23)NC(=O)[C@H](CCCCNC(=O)N2CCN(CC(=O)O)CC2)NC(=O)[C@H](Cc2cn(C)c3c(Cl)cccc23)NC(=O)[C@H](CCC(=O)O)N(C)C(=O)[C@H](CCCC(N)=O)NC(=O)[C@H](C2CCC2)NC(=O)[C@H](CC(N)=O)NC(=O)[C@H](Cc2cccc(O)c2)N(C)C(=O)[C@@H](Cc2cccc(C(N)=O)c2)NC(=O)CSC[C@@H](C(=O)N[C@H](CCCCNC(=O)CN2CCN3CCN4CCN(CC2)CC(=O)[O][Lu]([O]C(=O)C3)[O]C(=O)C4)C(N)=O)NC(=O)[C@H](CCCC(N)=O)NC1=O [PDC_EphA2-00022613-C302] ({CH2CO}-[dPhe(3-CONH2)][NMemTyr]N[Gly(cBu)][Aad](NH2)[NMeE][Trp(1-Me,7-Cl)]K([CO-Piperazinyl(4-CH2COOH)])[Trp(1-Me)]T[Aad](NH2)C[dK](DOTA(Lu))-NH2; thioether N-12)	< 1
CC(C)C[C@@H]1NC(=O)[C@H](CC(N)=O)NC(=O)[C@H](Cc2cccnc2)N(C)C(=O)[C@@H](C)NC(=O)CSC[C@@H](C(=O)N[C@H](CCCCNC(=O)CN(C)C(=O)CN(C)C(=O)CN(C)C(=O)CN(C)C(=O)CN(C)C(=O)CN(C)C(=O)CN(C)C(=O)CN(C)C(=O)CN(C)C(=O)CN(C)C(=O)CCNC(=O)CN2CCN3CCN4CCN(CC2)CC(=O)[O][Lu]([O]C(=O)C3)[O]C(=O)C4)C(N)=O)NC(=O)[C@H](CCCC(N)=O)NC(=O)[C@H]([C@@H](C)O)NC(=O)[C@H](Cc2cn(C)c3ccccc23)NC(=O)[C@H](CCCCNC(=O)N2CCN(CC(=O)O)CC2)NC(=O)[C@H](Cc2cn(C)c3ccccc23)NC(=O)C(CCC(=O)O)N(C)C(=O)[C@H](CCCC(N)=O)NC1=O (some centres unmarked) [PDC_EphA2-00007196-C310]	< 1
CN1C(=O)[C@H](CCCC(N)=O)NC(=O)[C@H](C2CCC2)NC(=O)[C@H](CC(N)=O)NC(=O)[C@H](Cc2cccc(O)c2)N(C)C(=O)[C@@H](Cc2cccc(C(N)=O)c2)NC(=O)CSC[C@@H](C(=O)N[C@@H](CCCCNC(=O)CN2CCN3CCN4CCN(CC2)CC(=O)[O][Lu]([O]C(=O)C3)[O]C(=O)C4)C(N)=O)NC(=O)[C@H](Cc2cn(C)c3ccccc23)NC(=O)[C@H](CCCCNC(=O)N2CCN(CC(=O)O)CC2)NC(=O)[C@H](Cc2cn(C)c3c(Cl)cccc23)NC(=O)[C@@H]1CCC(=O)O [PDC_EphA2-00026608-C301] ({CH2CO}-[dPhe(3-CONH2)][NMemTyr]N[Gly(cBu)][Aad](NH2)[NMeE][Trp(1-Me,7-Cl)]K([CO-Piperazinyl(4-CH2COOH)])[Trp(1-Me)]CK(DOTA(Lu))-NH2; thioether N-10)	< 1
CC(C)C[C@@H]1NC(=O)[C@H](CC(N)=O)NC(=O)[C@H](Cc2cccnc2)N(C)C(=O)[C@@H](Cc2cccc(C(N)=O)c2)NC(=O)CSC[C@@H](C(N)=O)NC(=O)[C@H](CCCC(N)=O)NC(=O)[C@H]([C@@H](C)O)NC(=O)[C@H](Cc2cn(C)c3ccccc23)NC(=O)[C@H](CCC(=O)NC[C@H](O)[C@@H](O)[C@H](O)[C@H](O)CO)NC(=O)[C@H](Cc2cn(C)c3c(Cl)cccc23)NC(=O)[C@H](CC(N)=O)N(C)C(=O)[C@H](CCCCNC(=O)CN2CCN3CCN4CCN(CC2)CC(=O)[O][Lu]([O]C(=O)C3)[O]C(=O)C4)NC1=O [PDC_EphA2-00026714] ({CH2CO}-[dPhe(3-CONH2)][NMe3Pal]NLK(DOTA(Lu))[NMeN][Trp(1-Me,7-Cl)]E(NH(1-deoxy-D-glucityl))[Trp(1-Me)]T[Aad](NH2)C-NH2; thioether N-12)	< 1

Same assay, conditions: conjugates, Biacore T200 according to Example B15, Table B16; read-out: SPR Kd

SMILES	Kd [nM]
CN1C(=O)[C@H](CCC(=O)NC[C@H](O)[C@@H](O)[C@H](O)[C@H](O)CO)NC(=O)[C@H](C2CCC2)NC(=O)[C@H](CC(N)=O)NC(=O)[C@H](Cc2cccnc2)N(C)C(=O)[C@@H](Cc2cccc(C(N)=O)c2)NC(=O)CSC[C@@H](C(=O)N[C@@H](CCCCNC(=O)CN2CCN(CC(=O)O)CCN(CC(=O)O)CCN(CC(=O)O)CC2)C(N)=O)NC(=O)[C@H](Cc2cn(C)c3ccccc23)NC(=O)[C@H](CCCCNC(=O)N2CCN(CC(=O)O)CC2)NC(=O)[C@H](Cc2cn(C)c3c(Cl)cccc23)NC(=O)[C@@H]1Cc1cccnc1.[Lu+3] [PDC_EphA2-00026603-C301] ({CH2CO}-[dPhe(3-CONH2)][NMe3Pal]N[Gly(cBu)]E(NH(1-deoxy-D-glucityl))[NMe3Pal][Trp(1-Me,7-Cl)]K([CO-Piperazinyl(4-CH2COOH)])[Trp(1-Me)]CK(DOTA)-NH2; thioether N-10)	< 1
CC(C)C[C@@H]1NC(=O)[C@H](CC(N)=O)NC(=O)[C@H](Cc2cccnc2)N(C)C(=O)[C@@H](Cc2cccc(C(N)=O)c2)NC(=O)CSC[C@@H](C(=O)N[C@H](CCCCNC(=O)CN2CCN(CC(=O)O)CCN(CC(=O)O)CCN(CC(=O)O)CC2)C(N)=O)NC(=O)[C@H](CC(N)=O)NC(=O)[C@H]([C@@H](C)O)NC(=O)[C@H](Cc2cn(C)c3ccccc23)NC(=O)[C@H](CCC(=O)NC[C@H](O)[C@@H](O)[C@H](O)[C@H](O)CO)NC(=O)[C@H](Cc2cn(C)c3c(Cl)cccc23)NC(=O)[C@H](CC(N)=O)N(C)C(=O)[C@H](CC(N)=O)NC1=O.[Lu+3] [PDC_EphA2-00026425-C302] ({CH2CO}-[dPhe(3-CONH2)][NMe3Pal]NLN[NMeN][Trp(1-Me,7-Cl)]E(NH(1-deoxy-D-glucityl))[Trp(1-Me)]TNC[dK](DOTA)-NH2; thioether N-12)	< 1
CC(C)C[C@@H]1NC(=O)[C@H](CC(N)=O)NC(=O)[C@H](Cc2cccnc2)N(C)C(=O)[C@@H](C)NC(=O)CSC[C@@H](C(=O)NCCC(=O)N[C@H](CCCCNC(=O)CCOCCOCCNC(=O)CCOCCOCCOCCOCCOCCOCCOCCOCCNC(=O)CN2CCN(CC(=O)O)CCN(CC(=O)O)CCN(CC(=O)O)CC2)C(N)=O)NC(=O)[C@H](CCCC(N)=O)NC(=O)[C@H]([C@@H](C)O)NC(=O)[C@H](Cc2cn(C)c3ccccc23)NC(=O)[C@H](CCCCNC(=O)N2CCN(CC(=O)O)CC2)NC(=O)[C@H](Cc2cn(C)c3ccccc23)NC(=O)[C@H](CCC(=O)O)N(C)C(=O)[C@H](CCCC(=O)O)NC1=O.[Lu+3] [PDC_EphA2-00008094-C304] ({CH2CO}-[dA][NMe3Pal]NL[Aad][NMeE][Trp(1-Me)]K([CO-Piperazinyl(4-CH2COOH)])[Trp(1-Me)]T[Aad](NH2)C[βAla][dK]([PEG2-PEG8-DOTA])-NH2; thioether N-12)	< 1
C[C@H]1NC(=O)CSC[C@@H](C(=O)N[C@H](CCC(=O)O)C(N)=O)NC(=O)[C@H](CCCC(N)=O)NC(=O)[C@H]([C@@H](C)O)NC(=O)[C@H](Cc2cn(C)c3ccccc23)NC(=O)[C@H](CCCCNC(=O)N2CCN(CC(=O)O)CC2)NC(=O)[C@H](Cc2cn(C)c3c(Cl)cccc23)NC(=O)[C@H](CCC(=O)O)N(C)C(=O)[C@H](CCCCNC(=O)CN2CCN(CC(=O)O)CCN(CC(=O)O)CCN(CC(=O)O)CC2)NC(=O)[C@H](C2CCC2)NC(=O)[C@H](CC(N)=O)NC(=O)[C@H](Cc2cccnc2)N(C)C1=O.[Lu+3] [PDC_EphA2-00027105] ({CH2CO}-[dA][NMe3Pal]N[Gly(cBu)]K(DOTA)[NMeE][Trp(1-Me,7-Cl)]K([CO-Piperazinyl(4-CH2COOH)])[Trp(1-Me)]T[Aad](NH2)C[dE]-NH2; thioether N-12)	< 1
CC(C)C[C@@H]1NC(=O)[C@H](CC(N)=O)NC(=O)[C@H](Cc2cccnc2)N(C)C(=O)[C@@H](Cc2cccc(C(N)=O)c2)NC(=O)CSC[C@@H](C(=O)N[C@H](CCCCNC(=O)CN2CCN(CC(=O)O)CCN(CC(=O)O)CCN(CC(=O)O)CC2)C(N)=O)NC(=O)[C@H](CC(N)=O)NC(=O)[C@H]([C@@H](C)O)NC(=O)[C@H](Cc2cn(C)c3ccccc23)NC(=O)[C@H](CCC(=O)NC[C@H](O)[C@@H](O)[C@H](O)[C@H](O)CO)NC(=O)[C@H](Cc2cn(C)c3c(Cl)cccc23)NC(=O)[C@H](Cc2cccnc2)N(C)C(=O)[C@H](CC(N)=O)NC1=O.[Lu+3] [PDC_EphA2-00026424-C302] ({CH2CO}-[dPhe(3-CONH2)][NMe3Pal]NLN[NMe3Pal][Trp(1-Me,7-Cl)]E(NH(1-deoxy-D-glucityl))[Trp(1-Me)]TNC[dK](DOTA)-NH2; thioether N-12)	< 1

Same assay, conditions: peptides, Biacore T200, 25 °C, Table B12; read-out: SPR Kd

Kd [nM]	SMILES
< 1	C[C@@H](O)[C@@H]1NC(=O)[C@H](Cc2cn(C)c3ccccc23)NC(=O)[C@H](CCC(=O)NC[C@H](O)[C@@H](O)[C@H](O)[C@H](O)CO)NC(=O)[C@H](Cc2cn(C)c3c(Cl)cccc23)NC(=O)[C@H](Cc2cccnc2)N(C)C(=O)[C@H](CCCC(N)=O)NC(=O)[C@H](C2CCC2)NC(=O)[C@H](CC(N)=O)NC(=O)[C@H](Cc2cccnc2)N(C)C(=O)[C@@H](Cc2cccc(C(N)=O)c2)NC(=O)CSC[C@@H](C(N)=O)NC(=O)[C@H](CCCC(N)=O)NC1=O [PDC_EphA2-00019437] ({CH2CO}-[dPhe(3-CONH2)][NMe3Pal]N[Gly(cBu)][Aad](NH2)[NMe3Pal][Trp(1-Me,7-Cl)]E(NH(1-deoxy-D-glucityl))[Trp(1-Me)]T[Aad](NH2)C-NH2; thioether N-12)
